ChEMBL document CHEMBL5385860, “Antiproliferative, antiangiogenic and apoptotic effect of new hybrids of quinazoline-4(3H)-ones and sulfachloropyridazine” (Eur J Med Chem, 2023)

How the values were obtained:
[1] = system: HUVEC; experiment: Cytotoxicity against HUVEC cells assessed as effect on cell morphology at 10 ug/ml measured after 72 hrs; type: toxicity, cell-based; conditions: human, dose 10 µg/ml
[2] = target: Vascular endothelial growth factor receptor 2 (Homo sapiens, UniProt P35968); experiment: Inhibition of recombinant VEGFR2 (unknown origin) by kinase glo detection reagent based assay
Vascular endothelial growth factor receptor 2, sequence (P35968 whole entry): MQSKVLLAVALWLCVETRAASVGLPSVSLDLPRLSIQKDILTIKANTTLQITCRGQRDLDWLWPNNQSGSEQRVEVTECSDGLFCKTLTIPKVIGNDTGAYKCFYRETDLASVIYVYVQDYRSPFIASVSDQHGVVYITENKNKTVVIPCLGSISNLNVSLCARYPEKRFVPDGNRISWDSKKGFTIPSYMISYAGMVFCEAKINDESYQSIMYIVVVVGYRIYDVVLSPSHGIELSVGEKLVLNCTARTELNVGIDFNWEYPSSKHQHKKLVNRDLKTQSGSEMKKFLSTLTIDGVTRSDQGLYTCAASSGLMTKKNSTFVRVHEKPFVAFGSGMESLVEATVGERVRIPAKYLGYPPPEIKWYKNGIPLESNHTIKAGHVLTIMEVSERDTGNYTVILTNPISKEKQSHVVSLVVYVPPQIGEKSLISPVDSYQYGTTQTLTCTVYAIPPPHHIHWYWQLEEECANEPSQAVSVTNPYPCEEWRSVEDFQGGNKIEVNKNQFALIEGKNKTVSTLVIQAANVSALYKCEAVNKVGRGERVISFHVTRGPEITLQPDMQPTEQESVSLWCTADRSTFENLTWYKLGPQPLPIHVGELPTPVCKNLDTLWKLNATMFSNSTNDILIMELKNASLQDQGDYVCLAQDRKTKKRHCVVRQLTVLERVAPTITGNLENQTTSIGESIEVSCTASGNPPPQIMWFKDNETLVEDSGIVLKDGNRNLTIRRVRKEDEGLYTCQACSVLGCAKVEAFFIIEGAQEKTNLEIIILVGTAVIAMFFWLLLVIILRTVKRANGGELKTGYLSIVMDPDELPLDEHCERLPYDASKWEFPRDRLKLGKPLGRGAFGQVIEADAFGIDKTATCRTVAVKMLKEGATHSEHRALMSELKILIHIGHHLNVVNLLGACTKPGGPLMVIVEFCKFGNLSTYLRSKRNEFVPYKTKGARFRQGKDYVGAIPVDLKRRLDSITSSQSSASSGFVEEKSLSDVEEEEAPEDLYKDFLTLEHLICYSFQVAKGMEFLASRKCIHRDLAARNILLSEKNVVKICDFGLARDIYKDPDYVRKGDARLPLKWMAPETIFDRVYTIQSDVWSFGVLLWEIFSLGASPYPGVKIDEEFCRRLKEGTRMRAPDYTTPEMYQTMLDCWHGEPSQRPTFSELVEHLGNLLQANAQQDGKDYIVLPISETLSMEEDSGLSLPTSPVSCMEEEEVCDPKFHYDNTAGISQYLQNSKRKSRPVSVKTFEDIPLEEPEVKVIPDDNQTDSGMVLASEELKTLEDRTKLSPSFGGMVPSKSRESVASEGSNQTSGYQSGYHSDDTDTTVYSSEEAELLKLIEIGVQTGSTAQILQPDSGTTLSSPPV

[3] = system: UO-31; experiment: Induction of apoptosis in human UO-31 cells assessed as increase in caspase-3 level by measuring optical density by Western blot densitometry analysis (reference value: 0.095); type: functional
[4] = system: ACHN; experiment: Cytotoxicity against human ACHN cells assessed as growth inhibition at 10 uM relative to control; type: functional; conditions: read-out: GI
[5] = system: NCI/ADR-RES; experiment: Cytotoxicity against human NCI/ADR-RES cells assessed as growth inhibition at 10 uM relative to control; type: functional; conditions: read-out: GI
[6] = system: SF-539; experiment: Cytotoxicity against human SF-539 cells assessed as growth inhibition at 10 uM relative to control; type: functional; conditions: read-out: GI
[7] = system: NCI-H23; experiment: Cytotoxicity against human NCI-H23 cells assessed as growth inhibition at 10 uM relative to control; type: functional; conditions: read-out: GI
[8] = system: CCRF-CEM; experiment: Cytotoxicity against human CCRF-CEM cells assessed as growth inhibition at 10 uM relative to control; type: functional; conditions: read-out: GI
[9] = system: UO-31; experiment: Cytotoxicity against human UO-31 cells assessed as growth inhibition at 10 uM relative to control; type: functional; conditions: read-out: GI
[10] = system: UACC-257; experiment: Cytotoxicity against human UACC-257 cells assessed as growth inhibition at 10 uM relative to control; type: functional; conditions: read-out: GI
[11] = system: HOP-92; experiment: Cytotoxicity against human HOP-92 cells assessed as growth inhibition at 10 uM relative to control; type: functional; conditions: read-out: GI
[12] = system: EKVX; experiment: Cytotoxicity against human EKVX cells assessed as growth inhibition at 10 uM relative to control; type: functional; conditions: read-out: GI
[13] = system: BT-549; experiment: Cytotoxicity against human BT-549 cells assessed as growth inhibition at 10 uM relative to control; type: functional; conditions: read-out: GI
[14] = system: A498; experiment: Cytotoxicity against human A498 cells assessed as growth inhibition at 10 uM relative to control; type: functional; conditions: read-out: GI
[15] = system: CAKI-1; experiment: Cytotoxicity against human CAKI-1 cells assessed as growth inhibition at 10 uM relative to control; type: functional; conditions: read-out: GI
[16] = system: SNB-75; experiment: Cytotoxicity against human SNB-75 cells assessed as growth inhibition at 10 uM relative to control; type: functional; conditions: read-out: GI
[17] = system: HCT-116; experiment: Cytotoxicity against human HCT-116 cells assessed as growth inhibition at 10 uM relative to control; type: functional; conditions: read-out: GI
[18] = system: SR; experiment: Cytotoxicity against human SR cells assessed as growth inhibition at 10 uM relative to control; type: functional; conditions: read-out: GI
[19] = system: K562; experiment: Cytotoxicity against human K562 cells assessed as growth inhibition at 10 uM relative to control; type: functional; conditions: read-out: GI
[20] = system: LOX IMVI; experiment: Cytotoxicity against human LOX IMVI cells assessed as growth inhibition at 10 uM relative to control; type: functional; conditions: read-out: GI
[21] = system: MDA-MB-468; experiment: Cytotoxicity against human MDA-MB-468 cells assessed as growth inhibition at 10 uM relative to control; type: functional; conditions: read-out: GI
[22] = system: PC-3; experiment: Cytotoxicity against human PC-3 cells assessed as growth inhibition at 10 uM relative to control; type: functional; conditions: read-out: GI
[23] = system: Hs-578T; experiment: Cytotoxicity against human Hs-578T cells assessed as growth inhibition at 10 uM relative to control; type: functional; conditions: read-out: GI
[24] = system: T47D; experiment: Cytotoxicity against human T47D cells assessed as growth inhibition at 10 uM relative to control; type: functional; conditions: read-out: GI
[25] = system: IGROV-1; experiment: Cytotoxicity against human IGROV-1 cells assessed as growth inhibition at 10 uM relative to control; type: functional; conditions: read-out: GI
[26] = system: UACC-62; experiment: Cytotoxicity against human UACC-62 cells assessed as growth inhibition at 10 uM relative to control; type: functional; conditions: read-out: GI
[27] = system: SF-268; experiment: Cytotoxicity against human SF-268 cells assessed as growth inhibition at 10 uM relative to control; type: functional; conditions: read-out: GI
[28] = system: RPMI-8226; experiment: Cytotoxicity against human RPMI-8226 cells assessed as growth inhibition at 10 uM relative to control; type: functional; conditions: read-out: GI
[29] = system: MOLT-4; experiment: Cytotoxicity against human MOLT-4 cells assessed as growth inhibition at 10 uM relative to control; type: functional; conditions: read-out: GI
[30] = system: MCF7; experiment: Cytotoxicity against human MCF7 cells assessed as growth inhibition at 10 uM relative to control; type: functional; conditions: read-out: GI
[31] = system: U-251; experiment: Cytotoxicity against human U-251 cells assessed as growth inhibition at 10 uM relative to control; type: functional; conditions: read-out: GI
[32] = system: NCI-H522; experiment: Cytotoxicity against human NCI-H522 cells assessed as growth inhibition at 10 uM relative to control; type: functional; conditions: read-out: GI
[33] = system: M14; experiment: cells; conditions: Homo sapiens, M14, 24 h
[34] = system: M14; experiment: cells; conditions: Homo sapiens, M14, light or radiation study
[35] = system: NCI-H226; experiment: Cytotoxicity against human NCI-H226 cells assessed as growth inhibition at 10 uM relative to control; type: functional; conditions: read-out: GI
[36] = system: SNB-75; experiment: cells; conditions: Homo sapiens, SNB-75, 24 h
[37] = system: Malme-3M; experiment: Cytotoxicity against human Malme-3M cells assessed as growth inhibition at 10 uM relative to control; type: functional; conditions: read-out: GI

## O=C(CSc1nc2ccccc2c(=O)n1CCc1ccccc1)Nc1ccc(S(=O)(=O)Nc2ccc(Cl)nn2)cc1
[1]
  Activity: Non-Toxic
[2]
  IC50: 0.066 µM
[3]
  OD: 0.772

## NS(=O)(=O)c1ccc(-n2c(SCC(=O)Nc3ccc(S(=O)(=O)Nc4ccc(Cl)nn4)cc3)nc3ccccc3c2=O)cc1
[4]
  inhibition of growth at 10 µM: 10%
[5]
  inhibition of growth at 10 µM: 11%
[6]
  inhibition of growth at 10 µM: 11%
[7]
  inhibition of growth at 10 µM: 14%
[8]
  inhibition of growth at 10 µM: 10%
[9]
  inhibition of growth at 10 µM: 17%
[10]
  inhibition of growth at 10 µM: 10%
[11]
  inhibition of growth at 10 µM: 24%

## Cn1c(SCC(=O)Nc2ccc(S(=O)(=O)Nc3ccc(Cl)nn3)cc2)nc2ccccc2c1=O
[12]
  inhibition of growth at 10 µM: 10%
[13]
  inhibition of growth at 10 µM: 17%
[9]
  inhibition of growth at 10 µM: 12%
[14]
  inhibition of growth at 10 µM: 19%
[11]
  inhibition of growth at 10 µM: 17%

## COc1cc2[nH]c(=S)n(-c3ccc(S(=O)(=O)Nc4ccc(Cl)nn4)cc3)c(=O)c2cc1OC
[9]
  inhibition of growth at 10 µM: 16%
[15]
  inhibition of growth at 10 µM: 10%
[16]
  inhibition of growth at 10 µM: 10%
[17]
  inhibition of growth at 10 µM: 11%

## O=C(CSc1nc2ccccc2c(=O)n1-c1ccc(S(=O)(=O)Nc2ccc(Cl)nn2)cc1)Nc1ccc(S(=O)(=O)Nc2ccc(Cl)nn2)cc1
[18]
  inhibition of growth at 10 µM: 13%
[19]
  inhibition of growth at 10 µM: 12%
[9]
  inhibition of growth at 10 µM: 12%
[20]
  inhibition of growth at 10 µM: 10%

## O=C(CSc1nc2ccccc2c(=O)n1-c1ccc(S(=O)(=O)Nc2ccc(Cl)nn2)cc1)Nc1ccccc1
[21]
  inhibition of growth at 10 µM: 15%
[22]
  inhibition of growth at 10 µM: 14%
[23]
  inhibition of growth at 10 µM: 27%
[24]
  inhibition of growth at 10 µM: 18%
[25]
  inhibition of growth at 10 µM: 13%
[26]
  inhibition of growth at 10 µM: 35%
[27]
  inhibition of growth at 10 µM: 10%
[28]
  inhibition of growth at 10 µM: 11%
[29]
  inhibition of growth at 10 µM: 18%
[19]
  inhibition of growth at 10 µM: 12%
[8]
  inhibition of growth at 10 µM: 11%
[13]
  inhibition of growth at 10 µM: 13%
[30]
  inhibition of growth at 10 µM: 17%
[9]
  inhibition of growth at 10 µM: 13%
[15]
  inhibition of growth at 10 µM: 12%
[14]
  inhibition of growth at 10 µM: 15%
[20]
  inhibition of growth at 10 µM: 18%
[31]
  inhibition of growth at 10 µM: 22%
[16]
  inhibition of growth at 10 µM: 11%
[32]
  inhibition of growth at 10 µM: 10%
[33]
  IC50: 4.46 µM
[34]
  IC50: 4.76 µM

## NS(=O)(=O)c1ccc(NC(=O)CSc2nc3ccccc3c(=O)n2-c2ccc(S(=O)(=O)Nc3ccc(Cl)nn3)cc2)cc1
[23]
  inhibition of growth at 10 µM: 13%
[26]
  inhibition of growth at 10 µM: 14%
[9]
  inhibition of growth at 10 µM: 10%
[15]
  inhibition of growth at 10 µM: 12%
[16]
  inhibition of growth at 10 µM: 27%

## O=c1c2ccccc2[nH]c(=S)n1-c1ccc(S(=O)(=O)Nc2ccc(Cl)nn2)cc1
[9]
  inhibition of growth at 10 µM: 17%
[15]
  inhibition of growth at 10 µM: 10%
[32]
  inhibition of growth at 10 µM: 11%

## O=C(CSc1nc2ccccc2c(=O)n1-c1ccccc1)Nc1ccc(S(=O)(=O)Nc2ccc(Cl)nn2)cc1
[35]
  inhibition of growth at 10 µM: 10%
[9]
  inhibition of growth at 10 µM: 21%
[10]
  inhibition of growth at 10 µM: 12%
[16]
  inhibition of growth at 10 µM: 27%
[11]
  inhibition of growth at 10 µM: 11%
[36]
  IC50: 47.5 µM

## O=C(CSc1nc2ccccc2c(=O)n1C1CCCCC1)Nc1ccc(S(=O)(=O)Nc2ccc(Cl)nn2)cc1
[37]
  inhibition of growth at 10 µM: 10%
[24]
  inhibition of growth at 10 µM: 12%
[9]
  inhibition of growth at 10 µM: 21%
[15]
  inhibition of growth at 10 µM: 14%
[16]
  inhibition of growth at 10 µM: 16%
[11]
  inhibition of growth at 10 µM: 25%
